{"source": "patent US7022693B2", "about": "“Treatment of lipodystrophy” (Ark Therapeutics Ltd., priority 2001, dated 2006)", "tested_on": "ACE activity in T-cells", "assay": "ACE activity in T-cells after administration of a protease inhibitor", "format": "cell-based", "data": [{"compound": "CC(C)C[C@H](NC(=O)[C@@H](O)[C@H](N)Cc1ccccc1)C(=O)O", "note": "[bestatin]", "values": [{"measurement": "ACE activity in T-cells", "value": "increased ACE activity"}]}]}
